Blank lines part the entries; values can stand above or below the compound they belong to.
Key:
[1] = target: Protein arginine N-methyltransferase 5 (Homo sapiens, UniProt O14744); experiment: Binding affinity to PRMT5 (unknown origin) assessed as inhibition constant
[2] = Microsomal stability in rat liver microsomes assessed as remaining compound after 1 hr incubation; type: ADME, Microsome; conditions: read-out: Stability
[3] = target: T1, Protein arginine N-methyltransferase 7 (Homo sapiens, UniProt Q9NVM4); experiment: Inhibition of PRMT7 (unknown origin)
T1 sequence (Q9NVM4 whole entry): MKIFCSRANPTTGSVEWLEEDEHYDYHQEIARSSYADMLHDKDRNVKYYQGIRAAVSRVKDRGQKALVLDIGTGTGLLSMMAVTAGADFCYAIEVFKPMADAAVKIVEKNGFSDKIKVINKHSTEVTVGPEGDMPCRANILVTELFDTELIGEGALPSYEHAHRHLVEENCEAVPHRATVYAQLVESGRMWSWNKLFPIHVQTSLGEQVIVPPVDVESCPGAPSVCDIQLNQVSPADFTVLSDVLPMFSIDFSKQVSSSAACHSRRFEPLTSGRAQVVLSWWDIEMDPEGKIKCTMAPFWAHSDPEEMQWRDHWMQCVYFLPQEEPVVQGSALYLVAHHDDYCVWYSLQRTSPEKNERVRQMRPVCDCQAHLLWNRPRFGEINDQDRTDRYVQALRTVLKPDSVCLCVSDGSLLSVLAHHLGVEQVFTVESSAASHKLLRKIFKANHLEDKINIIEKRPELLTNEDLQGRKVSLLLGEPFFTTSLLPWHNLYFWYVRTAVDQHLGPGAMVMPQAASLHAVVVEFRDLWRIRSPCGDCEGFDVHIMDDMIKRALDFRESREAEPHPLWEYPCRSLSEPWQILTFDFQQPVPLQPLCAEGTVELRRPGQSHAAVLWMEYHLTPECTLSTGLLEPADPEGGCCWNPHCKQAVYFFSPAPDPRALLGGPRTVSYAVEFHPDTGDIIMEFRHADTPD

[4] = target: T2, Histone-lysine N-methyltransferase SMYD3 (Homo sapiens, UniProt Q9H7B4); experiment: Inhibition of SMYD3 (unknown origin)
T2 sequence (Q9H7B4 whole entry): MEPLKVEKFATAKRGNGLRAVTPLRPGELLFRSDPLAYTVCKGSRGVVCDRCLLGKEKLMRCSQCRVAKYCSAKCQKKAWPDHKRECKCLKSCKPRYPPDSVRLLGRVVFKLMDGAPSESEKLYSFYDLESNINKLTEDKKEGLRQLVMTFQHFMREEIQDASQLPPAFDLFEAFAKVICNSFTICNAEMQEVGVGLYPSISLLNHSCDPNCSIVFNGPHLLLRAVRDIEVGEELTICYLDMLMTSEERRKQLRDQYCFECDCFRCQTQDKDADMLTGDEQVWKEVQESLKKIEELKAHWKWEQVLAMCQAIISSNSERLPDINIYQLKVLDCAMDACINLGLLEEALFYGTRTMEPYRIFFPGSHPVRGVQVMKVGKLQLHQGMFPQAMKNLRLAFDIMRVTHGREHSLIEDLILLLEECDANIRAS

Chain of Protein arginine N-methyltransferase 5 (O14744 whole entry): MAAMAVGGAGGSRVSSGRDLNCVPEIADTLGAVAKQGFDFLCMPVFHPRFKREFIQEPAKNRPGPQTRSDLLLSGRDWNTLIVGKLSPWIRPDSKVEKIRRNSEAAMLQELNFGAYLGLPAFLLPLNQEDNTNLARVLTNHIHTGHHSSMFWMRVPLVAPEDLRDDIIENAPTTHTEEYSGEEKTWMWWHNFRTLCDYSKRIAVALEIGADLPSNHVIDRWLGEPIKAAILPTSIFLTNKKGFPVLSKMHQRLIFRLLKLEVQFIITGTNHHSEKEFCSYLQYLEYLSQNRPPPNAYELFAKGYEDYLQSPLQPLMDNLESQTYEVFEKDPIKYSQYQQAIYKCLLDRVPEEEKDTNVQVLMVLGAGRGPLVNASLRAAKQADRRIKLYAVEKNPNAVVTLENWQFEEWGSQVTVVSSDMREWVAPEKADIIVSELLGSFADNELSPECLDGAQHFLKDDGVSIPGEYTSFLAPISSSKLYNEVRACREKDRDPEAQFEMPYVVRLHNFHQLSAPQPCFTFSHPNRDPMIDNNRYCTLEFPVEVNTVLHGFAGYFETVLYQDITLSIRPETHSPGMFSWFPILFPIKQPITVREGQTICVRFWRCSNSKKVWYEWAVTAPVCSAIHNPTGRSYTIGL

Ki [1]: 0.02 nM
SMILES: Nc1ncnc2c1ccn2[C@H]1O[C@@H]([C@H](O)c2ccc(Cl)c(F)c2)[C@H](O)[C@@H]1O

remaining at 1 h [2]: 24%
SMILES: COc1cccc(CCNC(=O)[C@H](CC[C@@H](CNCc2ccccc2)C[C@H]2O[C@@H](n3cnc4c(N)ncnc43)[C@H](O)[C@@H]2O)NC(=O)CC(C)(C)C2=C(C)C(=O)C(C)=C(C)C2=O)c1

IC50 [3]: < 2.5 nM
SMILES: Nc1ncnc2c1ncn2[C@@H]1O[C@H](CSCCCCNCc2cccc(-c3ccc(Cl)cc3)c2)[C@@H](O)[C@H]1O

IC50 [4]: 130 nM
SMILES: CN(C)CCCN(CC[C@H](N)C(=O)O)C[C@@H]1O[C@H](n2cnc3c(N)ncnc32)[C@@H](O)[C@H]1O

Reference: ChEMBL document CHEMBL5136992, “Fascinating Transformation of SAM-Competitive Protein Methyltransferase Inhibitors from Nucleoside Analogues to Non-Nucleoside Analogues” (J Med Chem, 2022)
